# Source: patent publication US11053204B2, “Pyrimidinyloxy benzene derivatives as herbicides” (FMC Corporation, priority 2015, dated 2021)
# Key:
# Format in all cases: in vivo
# [1] = tested on: pigweed (Amaranthus retroflexus); experiment: Test A preemergence, visual injury rating; conditions: Amaranthus retroflexus, pre-emergence, 240 h, 0 to 100 scale (0 no effect, 100 complete control), read-out: Pigweed plant response rating
# How it was run: (§1)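 Visual 0–100 rating (100 = complete control) taken about 10 d post-treatment relative to untreated checks. Preemergence: directed soil spray on sown loam/sand pots. Postemergence: seedlings 2–10 cm, 1–2 leaf. Non-phytotoxic solvent formulation with surfactant.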
# [2] = tested on: ragweed (common ragweed, Ambrosia elatior); experiment: Test A preemergence, visual injury rating; conditions: Ambrosia artemisiifolia, pre-emergence, 240 h, 0 to 100 scale (0 no effect, 100 complete control), read-out: Ragweed plant response rating
# How it was run: as §1
# kochia (Kochia scoparia) = experiment: Test A preemergence, visual injury rating; conditions: Bassia scoparia, pre-emergence, 240 h, 0 to 100 scale (0 no effect, 100 complete control), read-out: Kochia plant response rating
# How it was run: as §1
# [3] = tested on: Italian ryegrass (Lolium multiflorum); experiment: Test A preemergence, visual injury rating; conditions: Lolium multiflorum, pre-emergence, 240 h, 0 to 100 scale (0 no effect, 100 complete control), read-out: Ryegrass, Italian plant response rating
# How it was run: as §1
# [4] = tested on: barnyardgrass (Echinochloa crus-galli); experiment: Test A preemergence, visual injury rating; conditions: Echinochloa crus-galli, pre-emergence, 240 h, 0 to 100 scale (0 no effect, 100 complete control), read-out: Barnyardgrass plant response rating
# How it was run: as §1
# [5] = tested on: giant foxtail (Setaria faberii); experiment: Test A preemergence, visual injury rating; conditions: Setaria faberi, pre-emergence, 240 h, 0 to 100 scale (0 no effect, 100 complete control), read-out: Foxtail, Giant plant response rating
# How it was run: as §1
# [6] = tested on: ryegrass, Italian (Italian ryegrass, Lolium multiflorum); experiment: Test C postemergence, plant response rating; conditions: Lolium multiflorum, post-emergence
# How it was run: (§2)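 After sowing in loam–sand blend or silt loam, pots were sprayed preemergence; separately grown 1- to 4-leaf plants were sprayed postemergence. Following 13 to 15 d under greenhouse conditions, injury was rated visually on a 0 to 100 scale.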
# [7] = tested on: oat, wild (wild oat Avena fatua); experiment: Test C postemergence, plant response rating; conditions: Avena fatua, post-emergence
# How it was run: as §2
# [8] = tested on: galium (catchweed bedstraw, Galium aparine); experiment: Test C postemergence, plant response rating; conditions: Galium, post-emergence
# How it was run: as §2
# corn (Zea mays) = experiment: Test C postemergence, plant response rating; conditions: Zea mays, post-emergence
# How it was run: as §2
# [9] = tested on: foxtail, giant (giant foxtail, Setaria faberii); experiment: Test C postemergence, plant response rating; conditions: Setaria faberi, post-emergence
# How it was run: as §2
# [10] = tested on: wheat (winter wheat, Triticum aestivum); experiment: Test C postemergence, plant response rating; conditions: Triticum aestivum, post-emergence
# How it was run: as §2
# soybean (Glycine max) = experiment: Test C postemergence, plant response rating; conditions: Glycine max, post-emergence
# How it was run: as §2
# [11] = tested on: blackgrass (Alopecurus myosuroides); experiment: Test C postemergence, plant response rating; conditions: Alopecurus myosuroides, post-emergence
# How it was run: as §2
# [12] = tested on: lambsquarters (Chenopodium album); experiment: Test C postemergence, plant response rating; conditions: Chenopodium album, post-emergence
# How it was run: as §2
# [13] = tested on: crabgrass, large (large crabgrass, Digitaria sanguinalis); experiment: Test C postemergence, plant response rating; conditions: Digitaria sanguinalis, post-emergence
# How it was run: as §2
# [14] = tested on: nutsedge, yellow (yellow nutsedge, Cyperus esculentus); experiment: Test C postemergence, plant response rating; conditions: Cyperus, post-emergence
# How it was run: as §2
# [15] = tested on: chickweed (common chickweed, Stellaria media); experiment: Test C postemergence, plant response rating; conditions: Stellaria media, post-emergence
# How it was run: as §2
# [16] = 62 g ai/ha, scale 0 to 100 (0 no effect, 100 complete control)
# [17] = 125 g ai/ha, scale 0 to 100 (0 no effect, 100 complete control)
structure (smiles),measurement,setting,value
"C=CCCOC(=O)c1c(Br)cccc1Oc1ncc(Cl)cn1 [Compound 21, 3-buten-1-yl 2-bromo-6-[(5-chloro-2-pyrimidinyl)oxy]benzoate]",pest or weed control at 125 g/ha,[1]; 125 g ai/ha,100%
same,pest or weed control at 500 g/ha,[1]; 500 g ai/ha,100%
same,pest or weed control at 125 g/ha,[2]; 125 g ai/ha,0%
same,pest or weed control at 500 g/ha,[2]; 500 g ai/ha,0%
same,pest or weed control at 125 g/ha,kochia (Kochia scoparia); 125 g ai/ha,40%
same,pest or weed control at 500 g/ha,kochia (Kochia scoparia); 500 g ai/ha,100%
same,pest or weed control at 125 g/ha,[3]; 125 g ai/ha,30%
same,pest or weed control at 500 g/ha,[3]; 500 g ai/ha,90%
same,pest or weed control at 125 g/ha,[4]; 125 g ai/ha,100%
same,pest or weed control at 500 g/ha,[4]; 500 g ai/ha,100%
same,pest or weed control at 125 g/ha,[5]; 125 g ai/ha,100%
same,pest or weed control at 500 g/ha,[5]; 500 g ai/ha,100%
same,pest or weed control at 16 g/ha,"[6]; 16 g ai/ha, scale 0 to 100",0%
same,pest or weed control at 31 g/ha,"[6]; 31 g ai/ha, scale 0 to 100",0%
same,pest or weed control at 62 g/ha,[6]; [16],0%
same,pest or weed control at 125 g/ha,[6]; [17],15%
same,pest or weed control at 16 g/ha,"[7]; 16 g ai/ha, scale 0 to 100",0%
same,pest or weed control at 31 g/ha,"[7]; 31 g ai/ha, scale 0 to 100",0%
same,pest or weed control at 62 g/ha,[7]; [16],5%
same,pest or weed control at 125 g/ha,[7]; [17],5%
same,pest or weed control at 16 g/ha,"[8]; 16 g ai/ha, scale 0 to 100",55%
same,pest or weed control at 31 g/ha,"[8]; 31 g ai/ha, scale 0 to 100",80%
same,pest or weed control at 62 g/ha,[8]; [16],75%
same,pest or weed control at 125 g/ha,[8]; [17],80%
same,"Corn plant response rating (crop injury, 0 = no effect, 100 = complete kill) at 16 g/ha","corn (Zea mays); 16 g ai/ha, scale 0 to 100",5%
same,"Corn plant response rating (crop injury, 0 = no effect, 100 = complete kill) at 31 g/ha","corn (Zea mays); 31 g ai/ha, scale 0 to 100",5%
same,plant injury at 62 g/ha,corn (Zea mays); [16],15%
same,plant injury at 125 g/ha,corn (Zea mays); [17],20%
same,pest or weed control at 16 g/ha,"[9]; 16 g ai/ha, scale 0 to 100",10%
same,pest or weed control at 31 g/ha,"[9]; 31 g ai/ha, scale 0 to 100",10%
same,pest or weed control at 62 g/ha,[9]; [16],20%
same,pest or weed control at 125 g/ha,[9]; [17],15%
same,plant injury at 16 g/ha,"[10]; 16 g ai/ha, scale 0 to 100",0%
same,plant injury at 31 g/ha,"[10]; 31 g ai/ha, scale 0 to 100",0%
same,plant injury at 62 g/ha,"[10]; 62 g ai/ha, scale 0 to 100 (0 no effect, 100 complete control), read-out: Wheat plant response rating",0%
same,plant injury at 125 g/ha,[10]; [17],0%
same,plant injury at 16 g/ha,"soybean (Glycine max); 16 g ai/ha, scale 0 to 100",30%
same,plant injury at 31 g/ha,"soybean (Glycine max); 31 g ai/ha, scale 0 to 100",40%
same,plant injury at 62 g/ha,soybean (Glycine max); [16],60%
same,plant injury at 125 g/ha,soybean (Glycine max); [17],60%
same,pest or weed control at 16 g/ha,"[11]; 16 g ai/ha, scale 0 to 100",0%
same,pest or weed control at 31 g/ha,"[11]; 31 g ai/ha, scale 0 to 100",0%
same,pest or weed control at 62 g/ha,[11]; [16],5%
same,pest or weed control at 125 g/ha,[11]; [17],5%
same,pest or weed control at 16 g/ha,"[12]; 16 g ai/ha, scale 0 to 100",65%
same,pest or weed control at 31 g/ha,"[12]; 31 g ai/ha, scale 0 to 100",60%
same,pest or weed control at 62 g/ha,[12]; [16],65%
same,pest or weed control at 125 g/ha,[12]; [17],85%
same,pest or weed control at 16 g/ha,"[13]; 16 g ai/ha, scale 0 to 100",10%
same,pest or weed control at 31 g/ha,"[13]; 31 g ai/ha, scale 0 to 100",20%
same,pest or weed control at 62 g/ha,[13]; [16],25%
same,pest or weed control at 125 g/ha,[13]; [17],35%
same,pest or weed control at 16 g/ha,"[14]; 16 g ai/ha, scale 0 to 100",0%
same,pest or weed control at 31 g/ha,"[14]; 31 g ai/ha, scale 0 to 100",0%
same,pest or weed control at 62 g/ha,[14]; [16],5%
same,pest or weed control at 125 g/ha,[14]; [17],10%
same,pest or weed control at 16 g/ha,"[15]; 16 g ai/ha, scale 0 to 100",40%
same,pest or weed control at 31 g/ha,"[15]; 31 g ai/ha, scale 0 to 100",50%
same,pest or weed control at 62 g/ha,[15]; [16],50%
same,pest or weed control at 125 g/ha,[15]; [17],80%
